Data reported in patent US20080242544A1, “Phytoactive Composition” (priority 2004, published 2008).

system: not given; settings: Table 1, carriers; cited from earlier work

SMILES	logP(o/w)
C[C@@H]1CC[C@@H](C(C)(C)S)C(=O)C1 [(1R,4R)-8-mercapto-3-p-menthanone]	2.9

same assay, conditions: Table 4, no pH given; cited from earlier work

SMILES	Log P
CCc1cccc(C)c1N(C(=O)CCl)C(C)COC (stereo not shown) [Metolachlor]	3.00
CCN(C(=O)n1nnn(-c2ccccc2Cl)c1=O)C1CCCCC1 [Fentrazamide]	3.60
CS(=O)(=O)c1ccc(C(=O)C2C(=O)CCCC2=O)c([N+](=O)[O-])c1 [Mesotrione]	2.2

same assay, conditions: Table 5, no pH given; cited from earlier work

SMILES	Log Pow
CCCOCCN(C(=O)CCl)c1c(CC)cccc1CC [pretilachlor]	4.1
CCOC(=O)c1cnn(C)c1S(=O)(=O)NC(=O)Nc1nc(OC)cc(OC)n1 [pyrazosulfuron-ethyl]	1.3
Cc1cccc(C)c1N(Cn1cccn1)C(=O)CCl [metazachlor]	2.1
CCc1cccc(C)c1N(C(=O)CCl)[C@@H](C)COC [S-metolachlor]	3.1
C[C@@H](Oc1ccc(Oc2ccc(C(F)(F)F)cn2)cc1)C(=O)O [fluazifop-P]	3.1
CN(C)C(=O)Nc1ccccc1 [fenuron]	1.4
CCNc1nc(Cl)nc(NC(C)(C)C)n1 [terbuthylazine]	3.2
CNc1cnn(-c2cccc(C(F)(F)F)c2)c(=O)c1Cl [norflurazon]	2.5
CCOc1cc(Oc2ccc(C(F)(F)F)cc2Cl)ccc1[N+](=O)[O-] [oxyfluorfen]	4.5
CCCN(CCC)c1c([N+](=O)[O-])cc(C(F)(F)F)cc1[N+](=O)[O-] [trifluralin]	4.8
COc1ccsc1CN(C(=O)CCl)c1c(C)cccc1C [thenylchlor]	3.5
Cc1nnc(-c2ccccc2)c(=O)n1N [metamitron]	0.8
Cc1ccc(C(=O)COc2c(C(=O)c3ccc(Cl)c(C)c3Cl)c(C)nn2C)cc1 [benzofenap]	4.7
CCNc1nc(Cl)nc(NCC)n1 [simazine]	2.1
CC(Oc1ccc(Oc2ncc(C(F)(F)F)cc2Cl)cc1)C(=O)O (stereo not shown) [haloxyfop]	3.4
CCCCCCCCSC(=O)Oc1cc(Cl)nnc1-c1ccccc1 [pyridate]	4
CON(C)C(=O)Nc1ccc(Oc2ccc3c(c2)OC(C)(OC)CC3(C)C)cc1 (stereo not shown) [metobenzuron]	6.3
CON(C)C(=O)Nc1ccc(Cl)c(Cl)c1 [linuron]	3
COC(=O)c1c(Cl)c(Cl)c(C(=O)OC)c(Cl)c1Cl [chlorthal-dimethyl]	4.3
CCNc1nc(NC(C)(C)C)nc(OC)n1 [terbumeton]	3
CCCCOC(=O)C(C)Oc1ccc(Oc2ccc(C(F)(F)F)cn2)cc1 (stereo not shown) [fluazifop-butyl]	4.5
CCc1cccc(C)c1N(C(=O)CCl)C(C)COC (stereo not shown) [Metolachlor]	2.9

SMILES	Log Pow
CCCC(=NOCC)C1=C(O)CC(C2CCCSC2)CC1=O (stereo not shown) [cycloxydim]	1.4
COc1ccc(NC(=O)N(C)C)cc1Cl [metoxuron]	1.6
CCC(CC)Nc1c([N+](=O)[O-])cc(C)c(C)c1[N+](=O)[O-] [pendimethalin]	5.2
Cc1ccc(NC(=O)N(C)C)cc1Cl [chlorotoluron]	2.5
CCOCCOC(=O)C(C)Oc1ccc(Oc2ncc(C(F)(F)F)cc2Cl)cc1 (stereo not shown) [haloxyfop-etotyl]	4.3
CCc1cccc(C)c1N(COC(C)C)C(=O)CCl [propisochlor]	3.5
CC(C)C1(C)N=C(c2nc3ccccc3cc2C(=O)O)NC1=O (stereo not shown) [imazaquin]	2.9
CC(=O)Nc1cc(NS(=O)(=O)C(F)(F)F)c(C)cc1C [mefluidide]	2
CCCCOC(=O)[C@@H](C)Oc1ccc(Oc2ccc(C(F)(F)F)cn2)cc1 [fluazifop-p-butyl]	4.5
COc1cc(OC)nc(Oc2cccc(Oc3nc(OC)cc(OC)n3)c2C(=O)ON=C(c2ccccc2)c2ccccc2)n1 [pyribenzoxim]	3
COC(=O)c1cc(Oc2ccc(Cl)cc2Cl)ccc1[N+](=O)[O-] [bifenox]	4.5
CCOc1nc(F)cc2nc(S(=O)(=O)Nc3c(Cl)cccc3C(=O)OC)nn12 [cloransulam-methyl]	1.2
COC(=O)[C@@H](C)Oc1ccc(Oc2ncc(C(F)(F)F)cc2Cl)cc1 [haloxyfop-P-methyl]	4
N#Cc1cc(Br)c(O)c(Br)c1 [bromoxynil]	2.8
C#CCOc1cc(-n2nc3n(c2=O)CCCC3)c(Cl)cc1Cl [azafenidin]	2.7
C#CC(C)(C)NC(=O)c1cc(Cl)cc(Cl)c1 [propyzamide]	3.2
CCOC1Oc2ccc(OS(C)(=O)=O)cc2C1(C)C (stereo not shown) [ethofumesate]	2.7
O=C(O)c1cc(Oc2ccc(C(F)(F)F)cc2Cl)ccc1[N+](=O)[O-] [acifluorfen]	4.2
C#CCN1C(=O)COc2cc(F)c(N3C(=O)C4=C(CCCC4)C3=O)cc21 [flumioxazin]	1.3
CCC(=O)Nc1ccc(Cl)c(Cl)c1 [propanil]	3.3
CCSC(=O)N1CCCCCC1 [molinate]	2.9

same assay, conditions: Table 5, pH 5; cited from earlier work

SMILES	Log Pow
O=C(O)COc1nc(Cl)c(Cl)cc1Cl [triclopyr]	0.4 (pH 5)

same assay, conditions: Table 5, pH 7; cited from earlier work

SMILES	Log Pow
COC(=O)c1ccccc1S(=O)(=O)NC(=O)Nc1nc(OC(F)F)cc(OC(F)F)n1 [primisulfuron-methyl]	0.2 (pH 7)

same assay, conditions: Table 6; cited from earlier work

SMILES	logP
CCOC(=O)Cc1cccc2ccccc12 [ethyl 1-naphthylacetate]	3.8
CNc1cnn(-c2cccc(C(F)(F)F)c2)c(=O)c1Cl [norflurazon]	2.45
O=C(OCc1ccccc1)c1sc(Cl)nc1C(F)(F)F [flurazole]	4.1
CCOc1cc(Oc2ccc(C(F)(F)F)cc2Cl)ccc1[N+](=O)[O-] [oxyfluorfen]	4.5
CCC(CC)Nc1c([N+](=O)[O-])cc(C)c(C)c1[N+](=O)[O-] [pendimethalin]	5.2
N#Cc1cc(Br)c(O)c(Br)c1 [bromoxynil]	2.8

same assay, conditions: pH 1; cited from earlier work

SMILES	Log Pow
CS(=O)(=O)NC(=O)c1cc(Oc2ccc(C(F)(F)F)cc2Cl)ccc1[N+](=O)[O-] [fomesafen]	2.9 (pH 1)
Cc1cc(Cl)ccc1OCC(=O)O [MCPA, (4-chloro-2-methylphenoxy)acetic acid]	2.8 (pH 1)

same assay, conditions: pH 2; cited from earlier work

SMILES	Log P
CS(=O)(=O)c1cc(Cl)ccc1C(=O)c1cnoc1C1CC1 [Isoxachlortole]	2.76 (pH 2)

same assay, conditions: pH 3.9; cited from earlier work

SMILES	Log Pow
COC(=O)Nc1cccc(OC(=O)Nc2cccc(C)c2)c1 [phenmedipham]	3.6 (pH 3.9)

same assay, conditions: pH 5; cited from earlier work

SMILES	Log Pow
COC(=O)c1ccccc1S(=O)(=O)NC(=O)Nc1nc(C)cc(C)n1 [sulfometuron-methyl]	1.2 (pH 5)

same assay, conditions: pH 7; cited from earlier work

SMILES	Log P
CC(C)c1nn(C(=O)NC(C)(C)C)c(=O)n1N [amicarbazone]	1.23 (pH 7)
CCc1cnc(C2=NC(C)(C(C)C)C(=O)N2)c(C(=O)O)c1 (stereo not shown) [imazethapyr]	1.49 (pH 7)

same assay, conditions: pH 9; cited from earlier work

SMILES	Log Pow
COc1cc(OC)n2nc(S(=O)(=O)Nc3c(Cl)ccc(C)c3Cl)nc2n1 [metosulam]	3.1 (pH 9)

system: Field Pansy; design: species or system Viola avensis; settings: in vivo

SMILES	plant vigour of Pansy versus untreated
Cc1cc(Cl)ccc1OCC(=O)O [MCPA, (4-chloro-2-methylphenoxy)acetic acid]	more vigorous plants than untreated only plants
